{
  "source": "ChEMBL document CHEMBL5465560",
  "about": "“Selectivity Literature for EUbOPEN Chemogenomic Library” (2024)",
  "key": {"[1]": {"molecular_target": "Serine/threonine-protein kinase PAK 1 (Homo sapiens) (UniProt Q13153)", "sequence (Q13153 whole entry)": "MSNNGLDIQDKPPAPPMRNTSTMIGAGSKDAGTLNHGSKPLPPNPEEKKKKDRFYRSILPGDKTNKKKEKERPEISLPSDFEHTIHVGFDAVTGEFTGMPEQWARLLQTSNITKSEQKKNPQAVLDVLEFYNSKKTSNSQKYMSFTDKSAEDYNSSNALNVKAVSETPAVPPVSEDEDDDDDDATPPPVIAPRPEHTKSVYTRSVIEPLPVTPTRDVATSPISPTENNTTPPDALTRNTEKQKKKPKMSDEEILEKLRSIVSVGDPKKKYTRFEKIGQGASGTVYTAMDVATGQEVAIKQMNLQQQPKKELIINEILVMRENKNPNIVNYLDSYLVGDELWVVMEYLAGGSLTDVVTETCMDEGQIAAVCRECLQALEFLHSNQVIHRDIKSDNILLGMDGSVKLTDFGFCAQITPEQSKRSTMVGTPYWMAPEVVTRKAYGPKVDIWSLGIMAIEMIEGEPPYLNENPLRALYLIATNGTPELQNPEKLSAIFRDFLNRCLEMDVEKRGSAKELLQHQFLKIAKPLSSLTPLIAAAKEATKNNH", "assay": "Selectivity interaction (Kinase panel (Eurofins)) EUB0001564a PAK1", "settings": "at 1 µM"}, "[2]": {"molecular_target": "5-hydroxytryptamine receptor 2B (Homo sapiens, UniProt P41595)", "assay": "Selectivity interaction (Eurofins safety panel) EUB0001564a HTR2B", "settings": "at 10 µM"}, "[3]": {"molecular_target": "Insulin receptor-related protein (Homo sapiens) (UniProt P14616)", "settings": "at 10 µM"}, "[4]": {"molecular_target": "T1, Mitogen-activated protein kinase 14 (Homo sapiens, UniProt Q16539)", "T1 sequence (Q16539 whole entry)": "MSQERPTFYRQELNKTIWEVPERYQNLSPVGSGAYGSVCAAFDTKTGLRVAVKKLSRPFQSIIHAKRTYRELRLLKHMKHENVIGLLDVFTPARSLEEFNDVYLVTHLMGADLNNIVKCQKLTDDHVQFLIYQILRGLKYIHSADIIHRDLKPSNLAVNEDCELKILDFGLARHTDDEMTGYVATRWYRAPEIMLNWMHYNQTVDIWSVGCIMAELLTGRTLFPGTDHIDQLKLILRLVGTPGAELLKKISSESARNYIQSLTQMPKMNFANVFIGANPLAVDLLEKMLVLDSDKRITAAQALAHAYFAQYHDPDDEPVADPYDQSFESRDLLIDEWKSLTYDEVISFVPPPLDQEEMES", "settings": "at 10 µM"}, "[5]": {"molecular_target": "Glycogen synthase kinase-3 beta (Homo sapiens, UniProt P49841)", "assay": "Selectivity interaction (Enzymatic assay) EUB0001199aCl GSK3B"}, "[6]": {"molecular_target": "Calcium/calmodulin-dependent protein kinase type 1D (Homo sapiens) (UniProt Q8IU85)", "sequence (Q8IU85 whole entry, looked up)": "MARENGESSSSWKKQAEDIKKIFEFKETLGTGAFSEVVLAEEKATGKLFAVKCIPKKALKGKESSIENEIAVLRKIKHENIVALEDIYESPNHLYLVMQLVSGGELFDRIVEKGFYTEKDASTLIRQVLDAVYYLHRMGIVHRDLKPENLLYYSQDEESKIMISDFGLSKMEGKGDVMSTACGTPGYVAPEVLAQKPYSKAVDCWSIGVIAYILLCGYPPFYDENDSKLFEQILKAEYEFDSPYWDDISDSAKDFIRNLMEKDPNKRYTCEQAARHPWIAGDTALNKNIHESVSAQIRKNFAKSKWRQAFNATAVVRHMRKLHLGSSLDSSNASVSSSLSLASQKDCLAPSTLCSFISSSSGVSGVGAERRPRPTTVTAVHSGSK", "assay": "Selectivity interaction (KinomeScan (DiscoverX)) EUB0000655a CAMK1D", "settings": "at 10 µM"}, "[7]": {"molecular_target": "T2, Membrane-associated tyrosine- and threonine-specific cdc2-inhibitory kinase (Homo sapiens) (UniProt Q99640)", "T2 sequence (whole entry)": "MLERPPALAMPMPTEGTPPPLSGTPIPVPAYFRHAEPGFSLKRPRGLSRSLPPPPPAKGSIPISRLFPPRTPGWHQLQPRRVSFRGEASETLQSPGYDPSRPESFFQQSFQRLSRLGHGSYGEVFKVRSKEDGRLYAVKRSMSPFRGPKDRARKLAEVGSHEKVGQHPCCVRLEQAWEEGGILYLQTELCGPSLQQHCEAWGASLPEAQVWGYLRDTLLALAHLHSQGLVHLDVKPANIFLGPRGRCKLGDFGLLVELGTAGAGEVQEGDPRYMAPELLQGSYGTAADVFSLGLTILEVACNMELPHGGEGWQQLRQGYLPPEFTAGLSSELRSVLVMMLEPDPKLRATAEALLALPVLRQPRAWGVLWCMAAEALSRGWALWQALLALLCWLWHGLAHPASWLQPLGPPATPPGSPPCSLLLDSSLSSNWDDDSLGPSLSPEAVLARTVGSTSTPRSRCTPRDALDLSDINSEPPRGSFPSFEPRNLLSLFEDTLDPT", "assay": "Selectivity interaction (KinomeScan (DiscoverX)) EUB0001079a PKMYT1", "settings": "at 1 µM"}, "[8]": {"test_system": "Epidermal growth factor receptor (Homo sapiens), P00533 [G719C]", "assay": "(§1) Selectivity interaction (KinomeScan (DiscoverX)) EUB0000607a EGFR", "settings": "at 10 µM"}, "[9]": {"test_system": "Epidermal growth factor receptor (Homo sapiens), P00533 [G719S]", "assay": "as §1", "settings": "at 10 µM"}, "[10]": {"test_system": "Epidermal growth factor receptor (Homo sapiens), P00533 [T790M]", "assay": "as §1", "settings": "at 10 µM"}, "[11]": {"test_system": "Epidermal growth factor receptor (Homo sapiens), P00533 [L858R,T790M]", "sequence (P00533 whole entry T790M/L858R, looked up)": "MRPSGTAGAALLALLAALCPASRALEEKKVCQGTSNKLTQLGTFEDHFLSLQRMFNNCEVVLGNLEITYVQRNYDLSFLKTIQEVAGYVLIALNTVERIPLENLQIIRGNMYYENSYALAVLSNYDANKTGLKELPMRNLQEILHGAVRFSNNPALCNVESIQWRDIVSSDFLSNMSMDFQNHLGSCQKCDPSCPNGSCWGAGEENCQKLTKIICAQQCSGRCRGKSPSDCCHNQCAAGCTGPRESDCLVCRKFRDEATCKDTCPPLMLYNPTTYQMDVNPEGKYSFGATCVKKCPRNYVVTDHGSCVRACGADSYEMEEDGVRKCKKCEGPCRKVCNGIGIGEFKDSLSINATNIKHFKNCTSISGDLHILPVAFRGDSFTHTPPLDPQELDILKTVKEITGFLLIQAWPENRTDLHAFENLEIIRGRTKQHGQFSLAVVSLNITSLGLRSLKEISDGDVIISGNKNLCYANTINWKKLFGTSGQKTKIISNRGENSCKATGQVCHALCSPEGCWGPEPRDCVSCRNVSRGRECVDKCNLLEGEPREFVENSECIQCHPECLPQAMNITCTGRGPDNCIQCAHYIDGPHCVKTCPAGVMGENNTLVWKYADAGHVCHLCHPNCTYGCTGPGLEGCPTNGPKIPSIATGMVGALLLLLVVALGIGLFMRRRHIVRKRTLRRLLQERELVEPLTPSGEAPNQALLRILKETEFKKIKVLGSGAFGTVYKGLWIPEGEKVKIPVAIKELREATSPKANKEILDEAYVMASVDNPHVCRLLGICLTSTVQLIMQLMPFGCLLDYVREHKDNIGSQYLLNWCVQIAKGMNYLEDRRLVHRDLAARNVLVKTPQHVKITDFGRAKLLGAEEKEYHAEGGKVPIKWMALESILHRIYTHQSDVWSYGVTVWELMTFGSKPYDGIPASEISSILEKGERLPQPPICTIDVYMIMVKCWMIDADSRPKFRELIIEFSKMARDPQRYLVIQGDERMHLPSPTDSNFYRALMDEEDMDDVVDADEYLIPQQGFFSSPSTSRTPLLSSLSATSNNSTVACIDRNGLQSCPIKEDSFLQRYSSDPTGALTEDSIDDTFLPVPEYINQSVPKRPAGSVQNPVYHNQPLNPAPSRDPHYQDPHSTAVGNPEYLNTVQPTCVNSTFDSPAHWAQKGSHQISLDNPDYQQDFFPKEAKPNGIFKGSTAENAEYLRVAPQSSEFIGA", "assay": "as §1", "settings": "at 10 µM"}, "[12]": {"molecular_target": "Epidermal growth factor receptor (Homo sapiens, UniProt P00533)", "assay": "as §1", "settings": "at 10 µM"}, "[13]": {"test_system": "Epidermal growth factor receptor (Homo sapiens), P00533 [L858R]", "assay": "as §1", "settings": "at 10 µM"}, "[14]": {"test_system": "Epidermal growth factor receptor (Homo sapiens), P00533 [L861Q]", "assay": "as §1", "settings": "at 10 µM"}, "[15]": {"test_system": "Epidermal growth factor receptor (Homo sapiens), P00533 [UNDEFINED MUTATION]", "assay": "as §1", "settings": "at 10 µM"}, "[16]": {"molecular_target": "Activin receptor type-2A (Homo sapiens) (UniProt P27037)", "assay": "Selectivity interaction (KinomeScan (DiscoverX)) EUB0000607a ACVR2A", "settings": "at 10 µM"}, "[17]": {"molecular_target": "STE20-like serine/threonine-protein kinase (Homo sapiens, UniProt Q9H2G2)", "sequence (Q9H2G2 whole entry, looked up)": "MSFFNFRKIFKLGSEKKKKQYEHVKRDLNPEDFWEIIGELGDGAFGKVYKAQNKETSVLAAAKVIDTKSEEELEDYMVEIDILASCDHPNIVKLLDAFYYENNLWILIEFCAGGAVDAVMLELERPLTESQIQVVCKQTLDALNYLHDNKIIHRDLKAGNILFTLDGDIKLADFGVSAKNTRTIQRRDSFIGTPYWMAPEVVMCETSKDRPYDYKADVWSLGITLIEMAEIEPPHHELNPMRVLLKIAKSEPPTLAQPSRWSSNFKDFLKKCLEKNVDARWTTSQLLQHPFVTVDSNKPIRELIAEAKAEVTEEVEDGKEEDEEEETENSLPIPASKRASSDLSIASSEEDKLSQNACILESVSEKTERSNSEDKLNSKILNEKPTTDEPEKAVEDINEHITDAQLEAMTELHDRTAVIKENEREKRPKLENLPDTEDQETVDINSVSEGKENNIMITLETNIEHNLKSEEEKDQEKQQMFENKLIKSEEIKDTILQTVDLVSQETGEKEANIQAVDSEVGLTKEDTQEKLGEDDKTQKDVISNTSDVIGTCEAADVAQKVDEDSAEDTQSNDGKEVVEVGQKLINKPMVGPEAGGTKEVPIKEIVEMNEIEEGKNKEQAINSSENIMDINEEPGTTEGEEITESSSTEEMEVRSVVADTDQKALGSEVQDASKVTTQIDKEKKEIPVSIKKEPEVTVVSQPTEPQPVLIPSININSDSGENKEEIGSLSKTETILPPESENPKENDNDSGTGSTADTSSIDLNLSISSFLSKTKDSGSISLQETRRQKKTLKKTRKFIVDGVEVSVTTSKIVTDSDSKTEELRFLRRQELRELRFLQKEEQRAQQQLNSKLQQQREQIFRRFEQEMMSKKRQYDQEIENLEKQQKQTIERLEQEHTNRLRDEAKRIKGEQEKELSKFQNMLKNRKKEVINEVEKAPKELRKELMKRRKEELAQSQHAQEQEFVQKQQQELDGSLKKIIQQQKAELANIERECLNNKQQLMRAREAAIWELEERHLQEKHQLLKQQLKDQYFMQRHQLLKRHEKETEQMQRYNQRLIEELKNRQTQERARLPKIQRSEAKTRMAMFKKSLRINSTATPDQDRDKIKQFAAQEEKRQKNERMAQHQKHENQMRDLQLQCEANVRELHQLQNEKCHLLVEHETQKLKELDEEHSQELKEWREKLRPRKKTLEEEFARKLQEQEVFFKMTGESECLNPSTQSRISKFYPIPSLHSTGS", "assay": "Selectivity interaction (KinomeScan (DiscoverX)) EUB0000595a SLK", "settings": "at 10 µM"}, "[18]": {"molecular_target": "T1, Mitogen-activated protein kinase 14", "assay": "Selectivity interaction (Kinase panel (KiNativ target engagement assay in Jurkat cells)) EUB0001635a MAPK14", "format": "cell-based", "settings": "Selectivity number of off-targets 0.0, Selectivity number of targets 233.0, Source Knowledge https://www.sciencedirect.com/science/article/pii/S2451945619300674?via%3Dihub, at 1 µM"}, "[19]": {"molecular_target": "T3, Serine/threonine-protein kinase Nek3 (Homo sapiens) (UniProt P51956)", "T3 sequence (whole entry)": "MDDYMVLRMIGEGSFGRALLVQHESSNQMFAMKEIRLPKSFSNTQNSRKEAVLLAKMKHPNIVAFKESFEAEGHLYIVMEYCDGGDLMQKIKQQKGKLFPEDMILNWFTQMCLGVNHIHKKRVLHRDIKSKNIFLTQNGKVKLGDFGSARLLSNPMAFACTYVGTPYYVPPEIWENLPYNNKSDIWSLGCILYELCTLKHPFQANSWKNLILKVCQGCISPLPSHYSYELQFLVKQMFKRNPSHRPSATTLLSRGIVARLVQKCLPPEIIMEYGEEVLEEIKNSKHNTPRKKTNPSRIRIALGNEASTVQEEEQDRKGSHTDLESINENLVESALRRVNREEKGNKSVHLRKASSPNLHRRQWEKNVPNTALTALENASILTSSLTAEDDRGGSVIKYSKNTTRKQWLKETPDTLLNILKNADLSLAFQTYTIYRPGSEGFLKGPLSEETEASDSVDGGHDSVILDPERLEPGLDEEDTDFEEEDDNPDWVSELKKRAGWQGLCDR", "assay": "Selectivity interaction (ActivX KiNativ screen (kinase selectivity in THP-1 cell lysates)) EUB0000639a NEK3", "format": "subcellular", "settings": "lysate"}, "[20]": {"molecular_target": "Protein kinase C theta type (Homo sapiens, UniProt Q04759)", "sequence (Q04759 whole entry, looked up)": "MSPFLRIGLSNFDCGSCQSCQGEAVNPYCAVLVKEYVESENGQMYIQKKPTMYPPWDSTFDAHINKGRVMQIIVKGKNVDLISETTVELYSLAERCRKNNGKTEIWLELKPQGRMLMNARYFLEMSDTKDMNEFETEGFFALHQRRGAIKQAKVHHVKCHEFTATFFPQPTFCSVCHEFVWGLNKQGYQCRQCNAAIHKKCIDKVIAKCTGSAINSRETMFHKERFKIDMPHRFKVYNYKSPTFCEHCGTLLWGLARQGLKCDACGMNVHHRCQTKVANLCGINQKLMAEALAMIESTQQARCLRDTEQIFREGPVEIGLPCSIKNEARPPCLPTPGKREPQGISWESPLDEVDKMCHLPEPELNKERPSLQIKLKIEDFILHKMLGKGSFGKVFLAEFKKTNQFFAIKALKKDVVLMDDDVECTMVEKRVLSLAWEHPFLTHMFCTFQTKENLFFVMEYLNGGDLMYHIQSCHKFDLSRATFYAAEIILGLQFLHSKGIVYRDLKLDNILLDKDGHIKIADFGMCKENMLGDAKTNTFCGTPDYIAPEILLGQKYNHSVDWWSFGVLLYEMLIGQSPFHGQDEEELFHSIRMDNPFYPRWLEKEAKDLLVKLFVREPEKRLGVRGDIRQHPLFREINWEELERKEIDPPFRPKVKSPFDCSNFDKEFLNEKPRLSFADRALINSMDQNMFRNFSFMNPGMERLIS", "assay": "Selectivity interaction (KinomeScan (DiscoverX)) EUB0000229b PRKCQ", "settings": "at 10 µM"}, "[21]": {"molecular_target": "RAC-beta serine/threonine-protein kinase (Homo sapiens) (UniProt P31751)", "sequence (P31751 whole entry)": "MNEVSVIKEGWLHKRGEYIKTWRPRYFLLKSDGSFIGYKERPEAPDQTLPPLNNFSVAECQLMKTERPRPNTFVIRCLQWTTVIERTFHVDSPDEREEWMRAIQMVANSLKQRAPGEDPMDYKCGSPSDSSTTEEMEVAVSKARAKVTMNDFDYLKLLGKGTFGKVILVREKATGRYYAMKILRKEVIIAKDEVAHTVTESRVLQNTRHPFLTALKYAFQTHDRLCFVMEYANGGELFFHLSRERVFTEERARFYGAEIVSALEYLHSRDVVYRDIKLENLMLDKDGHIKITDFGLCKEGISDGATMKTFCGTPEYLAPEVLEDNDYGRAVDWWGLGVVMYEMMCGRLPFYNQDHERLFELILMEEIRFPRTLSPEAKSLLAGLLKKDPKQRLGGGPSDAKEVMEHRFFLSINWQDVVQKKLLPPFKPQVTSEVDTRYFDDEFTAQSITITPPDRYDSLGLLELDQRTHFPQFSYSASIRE", "assay": "Selectivity interaction (ProQinase) EUB0000171b AKT2"}, "[22]": {"molecular_target": "Rho-associated protein kinase 1 (Homo sapiens) (UniProt Q13464)", "assay": "Selectivity interaction (Kinase panel (Z-LYTE Assay)) EUB0001632a ROCK1", "settings": "at 10 µM"}, "[23]": {"molecular_target": "Mast/stem cell growth factor receptor Kit (Homo sapiens, UniProt P10721)", "assay": "Selectivity interaction (Kinase screening (Nanosyn)) EUB0000604a KIT"}, "Misshapen-like kinase 1": {"molecular_target": "Misshapen-like kinase 1 (Homo sapiens, UniProt Q8N4C8)", "assay": "Selectivity interaction (KinomeScan (DiscoverX)) EUB0000695a MINK1", "settings": "at 100 nM"}},
  "data": [
    {"smiles": "CC[C@@H](Nc1c(C#N)c(-c2ccc(-c3cccc(C)c3F)cc2)nc2cnccc12)C(=O)O", "note": "[BAY-091]", "values": [
      {"measurement": "% of inhibition", "setting": "[1]", "value": 23.8, "unit": "%"},
      {"measurement": "% of inhibition", "setting": "[2]", "value": 98, "unit": "%"}
    ]},
    {"smiles": "CCN(CC)CCCCNc1ncc2cc(-c3cc(OC)cc(OC)c3)c(NC(=O)NC(C)(C)C)nc2n1", "values": [
      {"measurement": "% of control", "setting": "[3]", "value": 100, "unit": "%"},
      {"measurement": "% of control", "setting": "[4]", "value": 100, "unit": "%"}
    ]},
    {"smiles": "CN1Cc2nccc(-c3cn(C)nc3-c3ccc(F)cc3)c2C1=O", "values": [
      {"measurement": "IC50", "setting": "[5]", "value": 10, "unit": "µM"}
    ]},
    {"smiles": "CN(C)CCOc1ccc(-c2nc(-c3ccncc3)c(-c3ccc4c(c3)CC/C4=N\\O)[nH]2)cc1", "values": [
      {"measurement": "% of control", "setting": "[6]", "value": 100, "unit": "%"}
    ]},
    {"smiles": "Nc1cnc(N2CCc3cc(S(=O)(=O)Nc4c(F)cc(Cl)cc4F)cc(N4CCCC4=O)c32)nc1", "note": "[TP-020n]", "values": [
      {"measurement": "% of control", "setting": "[7]", "value": 99, "unit": "%"}
    ]},
    {"smiles": "CNC(=O)Nc1ccc(-c2nc(N3CC4CCC(C3)O4)c3cnn(C4CCC5(CC4)OCCO5)c3n2)cc1", "values": [
      {"measurement": "% of control", "setting": "[8]", "value": 80, "unit": "%"},
      {"measurement": "% of control", "setting": "[9]", "value": 69, "unit": "%"},
      {"measurement": "% of control", "setting": "[10]", "value": 68, "unit": "%"},
      {"measurement": "% of control", "setting": "[11]", "value": 100, "unit": "%"},
      {"measurement": "% of control", "setting": "[12]", "value": 62, "unit": "%"},
      {"measurement": "% of control", "setting": "[13]", "value": 53, "unit": "%"},
      {"measurement": "% of control", "setting": "[14]", "value": 64, "unit": "%"},
      {"measurement": "% of control", "setting": "[15]", "value": 38, "unit": "%"},
      {"measurement": "% of control", "setting": "[16]", "value": 78, "unit": "%"}
    ]},
    {"smiles": "COCC(=O)NC/C=C/c1ccc2ncnc(Nc3ccc(Oc4ccc(C)nc4)c(C)c3)c2c1", "note": "[CP-724714]", "values": [
      {"measurement": "% of control", "setting": "[17]", "value": 60, "unit": "%"}
    ]},
    {"smiles": "C=CC(=O)Nc1ccc(C(=O)Nc2[nH]nc3c2CN(C(=O)N[C@H](CN(C)C)c2ccccc2)C3(C)C)cc1", "values": [
      {"measurement": "% of engagement", "setting": "[18]", "value": -6.9, "unit": "%"}
    ]},
    {"smiles": "CC[C@@H]1[C@H](F)C(=O)N[C@@H]1COc1nccc2cc(C(N)=O)c(OC)cc12", "note": "[ZIMLOVISERTIB]", "values": [
      {"measurement": "% of inhibition", "setting": "[19]; at 0.01 µM", "value": -5.8, "unit": "%"},
      {"measurement": "% of inhibition", "setting": "[19]; at 0.04 µM", "value": -2.4, "unit": "%"},
      {"measurement": "% of inhibition", "setting": "[19]; at 0.2 µM", "value": 6.9, "unit": "%"},
      {"measurement": "% of inhibition", "setting": "[19]; at 1 µM", "value": -1.1, "unit": "%"},
      {"measurement": "% of inhibition", "setting": "[19]; at 5 µM", "value": -11.5, "unit": "%"}
    ]},
    {"smiles": "COc1cc(N(C)c2ccnc3ccc(C(F)(F)F)cc23)cc(OC)c1OC", "values": [
      {"measurement": "% binding", "setting": "[20]", "value": 66, "unit": "%"}
    ]},
    {"smiles": "C=CC(=O)Nc1cccc(C(=O)Nc2ccc(Nc3cc(-c4[nH]c(SC)nc4C)ccn3)cc2)c1", "values": [
      {"measurement": "% of control", "setting": "[21]; at 1 µM", "value": 92, "unit": "%"},
      {"measurement": "% of control", "setting": "[21]; at 5 µM", "value": 78, "unit": "%"}
    ]},
    {"smiles": "Cn1cc(-n2cnc3c(NCc4nc5cc(Cl)c(Cl)cc5[nH]4)nc(N4CCOCC4)nc32)cn1", "values": [
      {"measurement": "% of control", "setting": "[22]", "value": -2.74, "unit": "%"}
    ]},
    {"smiles": "Cc1cnc(Nc2ccc(F)cc2Cl)nc1-c1c[nH]c(C(=O)N[C@H](CO)c2cccc(Cl)c2)c1", "values": [
      {"measurement": "% of inhibition", "setting": "[23]", "value": 8, "unit": "%"}
    ]},
    {"smiles": "Cc1cc(F)c(C(=O)Nc2cccc(-c3nncn3C(C)C)n2)cc1-n1cnc(C2CC2)c1", "values": [
      {"measurement": "% of control", "setting": "Misshapen-like kinase 1", "value": 83, "unit": "%"}
    ]}
  ]
}
